Where a SMILES comes first, the peptide text is derived from it.
What was measured:
[1] = Peptide release profile from 2% alginate hydrogel (fluorescence spectroscopy); format: physicochemical
Method: To study the peptide release profile, P2 was labeled with FITC. The release of peptide contained into the 2% alginate hydrogel (50 μg/ml) was quantified by fluorescence spectroscopy. First, alginate hydrogels were washed with culture media to remove the excess of CaCl2. Then, 750 μl of cell culture media were added onto peptide loaded alginate hydrogel. The samples were incubated at 37° C. and 5% CO2 for 21 days and cell culture media was changed twice a week. At prefixed time points (24 h, 4 d, 7 d, 11 d, 14 d, 18 d and 21 d), supernatants were collected and analyzed by fluorescence spectroscopy (λ ex 490 nm and λ em 525 nm) to determine the amount of peptide released to the media. The amount of peptide released during the washing step was also measured. The experiment was performed three times, and each sample analyzed in triplicate.
Relative fluorescence units were correlated with the amount of peptide released using a linear standard curve for each time point.

[2] = system: MC3T3-E1 cells; assay: Cell viability: LDH activity in culture media of cells on alginate hydrogels; format: cell-based, mouse; details: 24 h; 50 μg/ml in 2% alginate hydrogel
Method: (§1) The mouse osteoblastic cell line MC3T3-E1 (DSMZ, Braunschweig, Germany) was maintained as previously described (Tiainen H et al., 2011). Before seeding, 24-well culture plates containing crosslinked alginate hydrogels were washed with 750 μl of culture media to remove the excess of CaCl2. After evaluation of the efficiency of cell adhesion on 2% alginate gel using different cell densities, for the final experiments, cells were seeded at a density of 100 000 cells/well. Media was refreshed twice a week. Culture media was collected 24 h after seeding to study cell viability. Cells were harvested at days 14 and 21 to analyze gene expression of adhesion and osteogenic-related markers using real-time RT-PCR. Cultures were routinely observed using light microscopy (Leica DMIRB, Leica Microsystems Wetzlar GmbH, Germany).
The LDH activity determined in the culture media after 24 h was taken as an indicator of membrane leakage or cell lysis. The activity of the cytosolic enzyme was estimated as previously described (Rupert M at al., 2011).

[3] = system: MC3T3-E1 cells; assay: Gene expression of cell adhesion and osteoblast markers by real-time RT-PCR, cells on alginate hydrogels; format: cell-based, mouse; details: 50 μg/ml in 2% alginate hydrogel
Method: as §1
Total RNA was isolated using Tripure® (Roche Diagnostics, Mannheim, Germany), according to the manufacturer's protocol. Total RNA was quantified at 260 nm using a Nanodrop spectrophotometer (NanoDrop Technologies, Wilmington, Del., USA).
The same amount of RNA (350 ng) was reverse transcribed to cDNA using high capacity RNA-to-cDNA kit (Applied Biosystems, Foster City, Calif.), according to the protocol of the supplier. Aliquots of each cDNA were frozen (−20° C.) until the PCR reactions were carried out.
Real-time PCR was performed in the Lightcycler 480® (Roche Diagnostics, Mannheim, Germany) using SYBR green detection. Real-time PCR was done for two reference genes (18SrRNA and glyceraldehyde-3-phosphate dehydrogenase (GAPDH)) and ten target genes (integrin alpha 8 (Itga8), integrin beta1 (Itgb1), integrin beta 3 (Itgb3), fibronectin 1 (Fn11), bone morphogenetic protein 2 (Bmp2), collagen type I (Coll-I), bone sialoprotein (Bsp), alkaline phosphatase (Alp), osteocalcin (Oc) and osteopontin (Opn)).
The primer sequences are detailed in Table 2. Reaction conditions and relative quantification have been done as previously described (Tiainen H et al., 2011).

[4] = Peptide 2 release profile from TiO2 scaffolds coated with 2% alginate gel (UV-Vis 206 nm); format: physicochemical; details: P2-alginate-coated TiO2 scaffolds, distilled water, 37° C.
Method: TiO2 scaffolds coated with 2% alginate containing peptide 2 (P2-alginate-coated scaffold) were placed into 48-well plates (Nunc GmBh & Co. Kg, Langenselbold, Germany) containing 1 ml distilled water (pH 7.4). In order to mimic cell culture conditions, the samples were agitated on an orbital shaker at 200 rpm (IKA® Schüttler MTS 2, Germany) for 6 h at 37° C. and in humidity conditions (using a distilled water container). Then, samples were maintained at 37° C. in a humidified atmosphere for up to 21 days. At prefixed time points (2d, 5d, 7d, 9d, 12d, 14d, 16d, 19d and 21d), distilled water was collected and fresh distilled water was added into each well. Sample absorbances were analyzed by UV-Vis spectrophotometer (PerkinElmer® Lambda 25 UV/Vis Systems, USA) at a wavelength of 206 nm to determine the amount of peptide released. In parallel, […] scaffolds coated with one layer of 2% alginate gel were used as control to subtract absorbance values obtained from degradation products from alginate.
Relative absorbance units were correlated with the amount of peptide released using a linear standard curve for each time point and the cumulative P2 released was then calculated. The experiment was performed in triplicate.

[5] = system: primary human osteoblasts; assay: Cytotoxicity assay (LDH activity in culture medium), SIM containing scaffolds; format: cell-based; details: for LDH activity compared to alginate-coated scaffolds without SIM: 14-day period
Method: Cells from passages 7-9 were seeded on scaffolds at a density of 400.000 cells/ml. […] Scaffolds soaked with culture medium were placed in 48-well culture plates. […] The culture medium was replaced every other day. Collected medium was saved for use in cytotoxicity, alkaline phosphatase (ALP) activity and protein expression assays.

[6] = FITC-labeled P2, 50 μg/ml in 2% alginate hydrogel, culture media, 37° C.

Molecule	Expression of Opn ([3]; 14 days, vs control)	Fn1 mRNA levels ([3]; 14 days, vs control)	Itgb1 mRNA levels ([3]; 14 days, vs control)	Itgb3 mRNA levels ([3]; 14 days, vs control)	Fn1 mRNA levels ([3]; 21 days)	Itgb3 mRNA levels ([3]; 21 days)	ALP mRNA levels ([3]; 21 days, vs control)	Oc mRNA levels ([3]; 21 days, vs control)	other results
CC(C)C[C@H](NC(=O)[C@@H]1CCCN1)C(=O)N[C@H](C(=O)N1CCC[C@H]1C(=O)N[C@@H](CO)C(=O)N[C@@H](CCC(N)=O)C(=O)N1CCC[C@H]1C(=O)N[C@@H](CC(C)C)C(=O)N[C@H](C(=O)N1CCC[C@H]1C(=O)N[C@@H](CO)C(=O)N[C@@H](CCC(N)=O)C(=O)N1CCC[C@H]1C(=O)N[C@@H](CC(C)C)C(=O)N[C@H](C(=O)N1CCC[C@H]1C(=O)N[C@@H](CO)C(=O)N[C@@H](CCC(N)=O)C(=O)N1CCC[C@H]1C(=O)N[C@@H](CCC(N)=O)C(=O)N1CCC[C@H]1C(=O)N1CCC[C@H]1C(=O)N[C@@H](CC(C)C)C(=O)N1CCC[C@H]1C(=O)N1CCC[C@H]1C(=O)O)C(C)C)C(C)C)C(C)C [P2] (H-PLVPSQPLVPSQPLVPSQPQPPLPP-OH)	decreased significantly	decreased significantly	significantly decreased	decreased significantly	no differences were observed	no differences were observed	significantly decreased	–	total peptide theoretically contained in the alginate hydrogel not released after 21 days ([1]; FITC-labeled P2, 50 μg/ml in 2% alginate hydrogel, 37° C.): 5.6%; burst release of the peptide during the first 24 h of incubation [1, 6]: 54.67%; peptide slowly released up to 11 days [1, 6]: 25.8%; loaded peptide released during the washing step ([1]; washing of alginate hydrogels with culture media to remove excess CaCl2): 12.7%; cell viability compared to EMD [2]: significantly increased; Bmp2 relative mRNA levels ([3]; 21 days, vs EMD): decreased; amount of peptide released after 5 days [4]: 9.4 % of the cumulative amount rel; burst release of the peptide during the first 2 days of incubation [4]: 42.8 % of the cumulative amount of P2 released after 21 days
CCC(C)(C)C(=O)O[C@H]1C[C@@H](C)C=C2C=C[C@H](C)[C@H](CC[C@@H]3C[C@@H](O)CC(=O)O3)[C@H]21 [SIM, simvastatin]	–	–	–	–	–	–	–	–	LDH activity compared to alginate-coated scaffolds without SIM ([5]; 10 nM SIM): Neither of the SIM concentrations caused a significant increase; LDH activity compared to alginate-coated scaffolds without SIM ([5]; 10 μM SIM): Neither of the SIM concentrations caused a significant increase; LDH activity, scaffolds with 10 μM SIM compared to scaffolds with 10 nM SIM ([5]; throughout the 14-day period): higher LDH activity
PHQPMQPQPPVHPMQPLPPQPPLPP (Synthetic biomineralizing peptide) [P6, synthetic proline-rich peptide]	decreased significantly	decreased significantly	significantly decreased	decreased significantly	no differences were observed	no differences were observed	significantly decreased	increased	Bmp2 relative mRNA levels ([3]; 14 days, sentence ends 'compared to EMD'): increased significantly; ALP mRNA levels ([3]; 14 days, vs control): significantly decreased; Itgb1 mRNA levels ([3]; 21 days, vs EMD): reduced significantly
PLVPSSPLVPCCPLVPCCPSPPLPP (Synthetic biomineralizing peptide) [P5, synthetic proline-rich peptide]	–	–	–	–	–	–	–	increased	toxic effects compared to EMD and to untreated alginate gel [2]: significantly lower toxic effects; Itga8 mRNA expression ([3]; 21 days, vs control alginate hydrogel): increased
